Laboratory results as given in patent US10258629B2, “Liposomal drug encapsulation” (priority 2014, dated 2019).

Columns and labels:
U87 cells = test: In vivo anti-tumor activity against very large U87 flank tumors (FIG. 9); conditions: treatment over two weeks
[1] = Acute toxicity of free staurosporine; conditions: 5 mg/Kg free staurosporine
[2] = 0.8 mg/Kg injected as free staurosporine; 'would very likely be'; cited from earlier work
[3] = Reverse pH gradient encapsulation efficiency of staurosporine in liposomes
Description: The dried lipid film was hydrated with a buffer containing ammonium phosphate, ammonium sulfate, sodium phosphate, or sodium sulfate (300 mM, 7.4) and vortexed for 1 minute to remove any adhering lipid film. Sonication in a bath sonicator (ULTRAsonik 28X) for 1 minute at room temperature produced multilamellar vesicles (MLV). ME-Vs were then sonicated with a Ti-probe (Branson 450 sonifier) for 2 minutes to produce small unilamellar vesicles (SUV), indicated by the formation of a translucent solution. Extrusion through a 100 nm pore size polycarbonate filter (Whatman) was the final stage of a stepwise series of extrusions to reduce SUV size.
The prepared liposomes with internal buffer at pH 3 or 7.4 were passed through a Sephadex G-50 column equilibrated with HEPES buffered saline (FIBS; 20 mM HEPES, 150 mM NaCl, pH 7.4) to exchange the external buffer.

CN[C@@H]1C[C@H]2O[C@@](C)([C@@H]1OC)n1c3ccccc3c3c4c(c5c6ccccc6n2c5c31)C(=O)NC4 [free staurosporine, (9S, 10R, 11R, 13R)-2,3,10,11,12,13-Hexahydro-10-methoxy-9-methyl-11-(methylamino)-9,13-epoxy-1H,9H-diindolo[1,2,3-gh:3′,2′r-lm]pyrrolo[3,4-j][1,7]benzodiazonin-1-one]
Body weight (U87 cells): body weight did decline
Tumor growth (U87 cells; tumors 180-200 mm^3 at start, relative to PBS, p<0.004 for liposomal): no demonstrable effect
Acute lethality [1]: acutely lethal
Fraction cleared after only one circulatory pass [2]: 99%
Increase of encapsulation when a pH gradient existed ([3]; internal buffer pH 7.4 versus pH 3, external buffer constant at pH 3): 14 fold
Encapsulation rate ([3]; internal pH 5, external pH 7.4): very low encapsulation rates
Liposomal loading capacity, peak value ([3]; lipid to drug ratio 11.11 (mole/mole)): 70%
